In ChEMBL document CHEMBL4004849, “Tetrazolylmethyl quinolines: Design, docking studies, synthesis, anticancer and antifungal analyses” (2017):
Values after ≈ are worked out from the molar mass of the structure shown. Active and inactive are the calls of the source. The rule behind the calls is not given here.

system: MCF7; test: Growth inhibition of human MCF7 cells at 10^-5 M incubated for 48 hrs by sulforhodamine B assay relative to control; type: functional; conditions: not given

SMILES	growth inhibition (GI)
Cc1ccc2nc(Cl)c(Cn3nnnc3CSc3ccccc3)cc2c1	Active

system: RXF 393; test: Growth inhibition of human RXF393 cells at 10^-5 M incubated for 48 hrs by sulforhodamine B assay relative to control; type: functional; conditions: not given

SMILES	growth inhibition (GI)
Cc1ccc2nc(Cl)c(Cn3nnnc3CSc3ccccc3)cc2c1	Active

system: OVCAR-3; test: Growth inhibition of human OVCAR3 cells at 10^-5 M incubated for 48 hrs by sulforhodamine B assay relative to control; type: functional; conditions: not given

SMILES	growth inhibition (GI)
Cc1ccc2nc(Cl)c(Cn3nnnc3CSc3ccccc3)cc2c1	Active

system: HCT-15; test: Growth inhibition of human HCT15 cells at 10^-5 M incubated for 48 hrs by sulforhodamine B assay relative to control; type: functional; conditions: not given

SMILES	growth inhibition (GI)
Cc1ccc2nc(Cl)c(Cn3nnnc3CSc3ccccc3)cc2c1	Active

system: HCC 2998; test: Growth inhibition of human HCC2998 cells at 10^-5 M incubated for 48 hrs by sulforhodamine B assay relative to control; type: functional; conditions: not given

SMILES	growth inhibition (GI)
Cc1ccc2nc(Cl)c(Cn3nnnc3CSc3ccccc3)cc2c1	Active

system: MDA-MB-231; test: Growth inhibition of human MDA-MB-231/ATCC cells at 10^-5 M incubated for 48 hrs by sulforhodamine B assay relative to control; type: functional; conditions: not given

SMILES	growth inhibition (GI)
Cc1ccc2nc(Cl)c(Cn3nnnc3CSc3ccccc3)cc2c1	Active

system: KM12; test: Growth inhibition of human KM12 cells at 10^-5 M incubated for 48 hrs by sulforhodamine B assay relative to control; type: functional; conditions: not given

SMILES	growth inhibition (GI)
Cc1ccc2nc(Cl)c(Cn3nnnc3CSc3ccccc3)cc2c1	Active

system: LOX IMVI; test: Growth inhibition of human LOXIMVI cells at 10^-5 M incubated for 48 hrs by sulforhodamine B assay relative to control; type: functional; conditions: not given

SMILES	growth inhibition (GI)
Cc1ccc2nc(Cl)c(Cn3nnnc3CSc3ccccc3)cc2c1	Active

system: UACC-257; test: Growth inhibition of human UACC257 cells at 10^-5 M incubated for 48 hrs by sulforhodamine B assay relative to control; type: functional; conditions: not given

SMILES	growth inhibition (GI)
Cc1ccc2nc(Cl)c(Cn3nnnc3CSc3ccccc3)cc2c1	Active

system: SK-MEL-28; test: Growth inhibition of human SK-MEL-28 cells at 10^-5 M incubated for 48 hrs by sulforhodamine B assay relative to control; type: functional; conditions: not given

SMILES	growth inhibition (GI)
Cc1ccc2nc(Cl)c(Cn3nnnc3CSc3ccccc3)cc2c1	Active

system: T47D; test: Growth inhibition of human T47D cells at 10^-5 M incubated for 48 hrs by sulforhodamine B assay relative to control; type: functional; conditions: not given

SMILES	growth inhibition (GI)
Cc1ccc2nc(Cl)c(Cn3nnnc3CSc3ccccc3)cc2c1	Active

system: MOLT-4; test: Growth inhibition of human MOLT4 cells at 10^-5 M incubated for 48 hrs by sulforhodamine B assay relative to control; type: functional; conditions: not given

SMILES	growth inhibition (GI)
Cc1ccc2nc(Cl)c(Cn3nnnc3CSc3ccccc3)cc2c1	Active

system: Candida albicans; test: Antifungal activity against Candida albicans after 24 hrs by serial dilution method; type: functional; conditions: not given

SMILES	MIC [µg/mL]
Cc1ccc2nc(Cl)c(Cn3nnnc3CSc3ccccc3)cc2c1	10 (≈ 26.2 µM)

system: SNB-19; test: Growth inhibition of human SNB19 cells at 10^-5 M incubated for 48 hrs by sulforhodamine B assay relative to control; type: functional; conditions: not given

SMILES	growth inhibition (GI)
Cc1ccc2nc(Cl)c(Cn3nnnc3CSc3ccccc3)cc2c1	Active

system: A549; test: Growth inhibition of human A549/ATCC cells at 10^-5 M incubated for 48 hrs by sulforhodamine B assay relative to control; type: functional; conditions: not given

SMILES	growth inhibition (GI)
Cc1ccc2nc(Cl)c(Cn3nnnc3CSc3ccccc3)cc2c1	Active

system: BT-549; test: Growth inhibition of human BT549 cells at 10^-5 M incubated for 48 hrs by sulforhodamine B assay relative to control; type: functional; conditions: not given

SMILES	growth inhibition (GI)
Cc1ccc2nc(Cl)c(Cn3nnnc3CSc3ccccc3)cc2c1	Active

system: UO-31; test: Growth inhibition of human UO31 cells at 10^-5 M incubated for 48 hrs by sulforhodamine B assay relative to control; type: functional; conditions: not given

SMILES	growth inhibition (GI)
Cc1ccc2nc(Cl)c(Cn3nnnc3CSc3ccccc3)cc2c1	Active

system: SK-OV-3; test: Growth inhibition of human SKOV3 cells at 10^-5 M incubated for 48 hrs by sulforhodamine B assay relative to control; type: functional; conditions: not given

SMILES	growth inhibition (GI)
Cc1ccc2nc(Cl)c(Cn3nnnc3CSc3ccccc3)cc2c1	Active

system: HT-29; test: Growth inhibition of human HT-29 cells at 10^-5 M incubated for 48 hrs by sulforhodamine B assay relative to control; type: functional; conditions: not given

SMILES	growth inhibition (GI)
Cc1ccc2nc(Cl)c(Cn3nnnc3CSc3ccccc3)cc2c1	Active

system: Aspergillus fumigatus; test: Antifungal activity against Aspergillus fumigatus after 24 hrs by serial dilution method; type: functional; conditions: not given

SMILES	MIC [µg/mL]
Cc1ccc2nc(Cl)c(Cn3nnnc3CSc3ccccc3)cc2c1	25 (≈ 65.5 µM)

system: SR; test: Growth inhibition of human SR cells at 10^-5 M incubated for 48 hrs by sulforhodamine B assay relative to control; type: functional; conditions: not given

SMILES	growth inhibition (GI)
Cc1ccc2nc(Cl)c(Cn3nnnc3CSc3ccccc3)cc2c1	Active

system: Hs-578T; test: Growth inhibition of human Hs 578T cells at 10^-5 M incubated for 48 hrs by sulforhodamine B assay relative to control; type: functional; conditions: not given

SMILES	growth inhibition (GI)
Cc1ccc2nc(Cl)c(Cn3nnnc3CSc3ccccc3)cc2c1	Active

system: NCI-H23; test: Growth inhibition of human NCI-H23 cells at 10^-5 M incubated for 48 hrs by sulforhodamine B assay relative to control; type: functional; conditions: not given

SMILES	growth inhibition (GI)
Cc1ccc2nc(Cl)c(Cn3nnnc3CSc3ccccc3)cc2c1	Active

system: SF-268; test: Growth inhibition of human SF268 cells at 10^-5 M incubated for 48 hrs by sulforhodamine B assay relative to control; type: functional; conditions: not given

SMILES	growth inhibition (GI)
Cc1ccc2nc(Cl)c(Cn3nnnc3CSc3ccccc3)cc2c1	Active

system: SK-MEL-5; test: Growth inhibition of human SK-MEL-5 cells at 10^-5 M incubated for 48 hrs by sulforhodamine B assay relative to control; type: functional; conditions: not given

SMILES	growth inhibition (GI)
Cc1ccc2nc(Cl)c(Cn3nnnc3CSc3ccccc3)cc2c1	Active

system: SF-539; test: Growth inhibition of human SF539 cells at 10^-5 M incubated for 48 hrs by sulforhodamine B assay relative to control; type: functional; conditions: not given

SMILES	growth inhibition (GI)
Cc1ccc2nc(Cl)c(Cn3nnnc3CSc3ccccc3)cc2c1	Active

system: SNB-75; test: Growth inhibition of human SNB75 cells at 10^-5 M incubated for 48 hrs by sulforhodamine B assay relative to control; type: functional; conditions: not given

SMILES	growth inhibition (GI)
Cc1ccc2nc(Cl)c(Cn3nnnc3CSc3ccccc3)cc2c1	Active

system: OVCAR-5; test: Growth inhibition of human OVCAR5 cells at 10^-5 M incubated for 48 hrs by sulforhodamine B assay relative to control; type: functional; conditions: not given

SMILES	growth inhibition (GI)
Cc1ccc2nc(Cl)c(Cn3nnnc3CSc3ccccc3)cc2c1	Active

system: UACC-62; test: Growth inhibition of human UACC62 cells at 10^-5 M incubated for 48 hrs by sulforhodamine B assay relative to control; type: functional; conditions: not given

SMILES	growth inhibition (GI)
Cc1ccc2nc(Cl)c(Cn3nnnc3CSc3ccccc3)cc2c1	Active

system: OVCAR-4; test: Growth inhibition of human OVCAR4 cells at 10^-5 M incubated for 48 hrs by sulforhodamine B assay relative to control; type: functional; conditions: not given

SMILES	growth inhibition (GI)
Cc1ccc2nc(Cl)c(Cn3nnnc3CSc3ccccc3)cc2c1	Active

system: OVCAR-8; test: Growth inhibition of human OVCAR8 cells at 10^-5 M incubated for 48 hrs by sulforhodamine B assay relative to control; type: functional; conditions: not given

SMILES	growth inhibition (GI)
Cc1ccc2nc(Cl)c(Cn3nnnc3CSc3ccccc3)cc2c1	Active

system: NCI-H226; test: Growth inhibition of human NCI-H226 cells at 10^-5 M incubated for 48 hrs by sulforhodamine B assay relative to control; type: functional; conditions: not given

SMILES	growth inhibition (GI)
Cc1ccc2nc(Cl)c(Cn3nnnc3CSc3ccccc3)cc2c1	Active

system: Aspergillus fumigatus; test: Antifungal activity against Aspergillus fumigatus at 100 ug/ml by disc diffusion method; type: functional; conditions: read-out: IZ

SMILES	zone of inhibition at 100 µg/mL [mm]
Cc1ccc2nc(Cl)c(Cn3nnnc3CSc3ccccc3)cc2c1	16

system: COLO 205; test: Growth inhibition of human COLO205 cells at 10^-5 M incubated for 48 hrs by sulforhodamine B assay relative to control; type: functional; conditions: not given

SMILES	growth inhibition (GI)
Cc1ccc2nc(Cl)c(Cn3nnnc3CSc3ccccc3)cc2c1	Active

system: TK-10; test: Growth inhibition of human TK10 cells at 10^-5 M incubated for 48 hrs by sulforhodamine B assay relative to control; type: functional; conditions: not given

SMILES	growth inhibition (GI)
Cc1ccc2nc(Cl)c(Cn3nnnc3CSc3ccccc3)cc2c1	Active

system: K562; test: Growth inhibition of human K562 cells at 10^-5 M incubated for 48 hrs by sulforhodamine B assay relative to control; type: functional; conditions: not given

SMILES	growth inhibition (GI)
Cc1ccc2nc(Cl)c(Cn3nnnc3CSc3ccccc3)cc2c1	Active

system: U-251; test: Growth inhibition of human U251 cells at 10^-5 M incubated for 48 hrs by sulforhodamine B assay relative to control; type: functional; conditions: not given

SMILES	growth inhibition (GI)
Cc1ccc2nc(Cl)c(Cn3nnnc3CSc3ccccc3)cc2c1	Active

system: SW-620; test: Growth inhibition of human SW620 cells at 10^-5 M incubated for 48 hrs by sulforhodamine B assay relative to control; type: functional; conditions: not given

SMILES	growth inhibition (GI)
Cc1ccc2nc(Cl)c(Cn3nnnc3CSc3ccccc3)cc2c1	Active

system: 786-0; test: Growth inhibition of human 786-0 cells at 10^-5 M incubated for 48 hrs by sulforhodamine B assay relative to control; type: functional; conditions: not given

SMILES	growth inhibition (GI)
Cc1ccc2nc(Cl)c(Cn3nnnc3CSc3ccccc3)cc2c1	Active

system: SF-295; test: Growth inhibition of human SF295 cells at 10^-5 M incubated for 48 hrs by sulforhodamine B assay relative to control; type: functional; conditions: not given

SMILES	growth inhibition (GI)
Cc1ccc2nc(Cl)c(Cn3nnnc3CSc3ccccc3)cc2c1	Active

system: EKVX; test: Growth inhibition of human EKVX cells at 10^-5 M incubated for 48 hrs by sulforhodamine B assay relative to control; type: functional; conditions: not given

SMILES	growth inhibition (GI)
Cc1ccc2nc(Cl)c(Cn3nnnc3CSc3ccccc3)cc2c1	Active

system: SN12C; test: Growth inhibition of human SN12C cells at 10^-5 M incubated for 48 hrs by sulforhodamine B assay relative to control; type: functional; conditions: not given

SMILES	growth inhibition (GI)
Cc1ccc2nc(Cl)c(Cn3nnnc3CSc3ccccc3)cc2c1	Active

system: HL-60(TB); test: Growth inhibition of human HL-60(TB) cells at 10^-5 M incubated for 48 hrs by sulforhodamine B assay relative to control; type: functional; conditions: not given

SMILES	growth inhibition (GI)
Cc1ccc2nc(Cl)c(Cn3nnnc3CSc3ccccc3)cc2c1	Active

system: ACHN; test: Growth inhibition of human ACHN cells at 10^-5 M incubated for 48 hrs by sulforhodamine B assay relative to control; type: functional; conditions: not given

SMILES	growth inhibition (GI)
Cc1ccc2nc(Cl)c(Cn3nnnc3CSc3ccccc3)cc2c1	Active

system: M14; test: Growth inhibition of human M14 cells at 10^-5 M incubated for 48 hrs by sulforhodamine B assay relative to control; type: functional; conditions: not given

SMILES	growth inhibition (GI)
Cc1ccc2nc(Cl)c(Cn3nnnc3CSc3ccccc3)cc2c1	Active
